Reference: ChEMBL document CHEMBL1201862, “PubChem BioAssay data set” (2004)
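Five compound concentrations were applied to cells in 96-well plates for 48 hours; endpoints were derived by simple linear interpolation of the resulting dose-response curve. GI50 is the concentration that inhibits growth by half.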 Activity calls are given as the source filed them. Rule as the data show it: active = GI50 up to about 1.1 µM and inactive = higher.

How the values were obtained:
Assay in all cases: NCI tumour cell line growth inhibition, 48 h
786-0 = system: 786-0
A498 = system: A498
A549 = system: A549
ACHN = system: ACHN
BT-549 = system: BT-549
CAKI-1 = system: CAKI-1
CCRF-CEM = system: CCRF-CEM
COLO 205 = system: COLO 205
DU-145 = system: DU-145
EKVX = system: EKVX
HCC 2998 = system: HCC 2998
HCT-116 = system: HCT-116
HCT-15 = system: HCT-15
HL-60 = system: HL-60
HOP-62 = system: HOP-62
HOP-92 = system: HOP-92
HT-29 = system: HT-29
Hs-578T = system: Hs-578T
IGROV-1 = system: IGROV-1
K562 = system: K562
KM12 = system: KM12
LOX IMVI = system: LOX IMVI
M14 = system: M14
MCF7 = system: MCF7
MDA-MB-435 = system: MDA-MB-435
MDA-N = system: MDA-N
MOLT-4 = system: MOLT-4
Malme-3M = system: Malme-3M
NCI-H23 = system: NCI-H23
NCI-H460 = system: NCI-H460
NCI-H522 = system: NCI-H522
NCI/ADR-RES = system: NCI/ADR-RES
OVCAR-3 = system: OVCAR-3
OVCAR-4 = system: OVCAR-4
OVCAR-5 = system: OVCAR-5
OVCAR-8 = system: OVCAR-8
RPMI-8226 = system: RPMI-8226
RXF 393 = system: RXF 393
SF-268 = system: SF-268
SF-295 = system: SF-295
SF-539 = system: SF-539
SK-MEL-28 = system: SK-MEL-28
SK-MEL-5 = system: SK-MEL-5
SK-OV-3 = system: SK-OV-3
SN12C = system: SN12C
SNB-19 = system: SNB-19
SNB-75 = system: SNB-75
SR = system: SR
SW-620 = system: SW-620
TK-10 = system: TK-10
UACC-257 = system: UACC-257
UACC-62 = system: UACC-62
UO-31 = system: UO-31
NCI-H226 = system: NCI-H226
PC-3 = system: PC-3
SK-MEL-2 = system: SK-MEL-2
T47D = system: T47D
MDA-MB-231 = system: MDA-MB-231
U-251 = system: U-251

Measured: GI50

CCOC(=O)C1(C(=O)OCC)CN(CC)CN(c2ccccc2)C1
inactive: 786-0 19.8 µM | A498 > 100 µM | A549 22.2 µM | ACHN 19.9 µM | BT-549 20.8 µM | CAKI-1 17.8 µM | CCRF-CEM 16.2 µM | COLO 205 18.2 µM | DU-145 30 µM | EKVX 17.6 µM | HCC 2998 15.4 µM | HCT-116 48.3 µM | HL-60 22.2 µM | HOP-62 21.1 µM | HOP-92 16.5 µM | HT-29 17.8 µM | Hs-578T > 100 µM | IGROV-1 19.6 µM | K562 39.4 µM | KM12 > 100 µM | LOX IMVI 91.2 µM | M14 19.1 µM | MCF7 18.5 µM | MDA-MB-435 19.1 µM | MDA-N 35.6 µM | MOLT-4 18.3 µM | Malme-3M 38.3 µM | NCI-H23 18.4 µM | NCI-H460 35.4 µM | NCI-H522 29.3 µM | NCI/ADR-RES 45.6 µM | OVCAR-3 18.5 µM | OVCAR-4 25.1 µM | OVCAR-5 19.2 µM | OVCAR-8 21.5 µM | RPMI-8226 18.2 µM | RXF 393 17.1 µM | SF-268 69.2 µM | SF-295 > 100 µM | SF-539 21.5 µM | SK-MEL-28 18.7 µM | SK-MEL-5 34.8 µM | SK-OV-3 > 100 µM | SN12C 37.1 µM | SNB-19 > 100 µM | SNB-75 19.4 µM | SR 21 µM | SW-620 30.6 µM | TK-10 19 µM | UACC-257 17.2 µM | UACC-62 26.5 µM | UO-31 28 µM
16 µM: HCT-15

Clc1ccc(-c2cc(-c3cc(-c4ccc(Cl)cc4)[nH]n3)[nH]n2)cc1
inactive: A498 > 100 µM | ACHN > 100 µM | BT-549 > 100 µM | COLO 205 > 100 µM | DU-145 > 100 µM | EKVX > 100 µM | HCT-116 > 100 µM | IGROV-1 > 100 µM | K562 > 100 µM | M14 > 100 µM | MDA-MB-435 > 100 µM | MDA-N > 100 µM | MOLT-4 > 100 µM | Malme-3M > 100 µM | NCI-H226 > 100 µM | NCI-H23 > 100 µM | NCI-H522 > 100 µM | OVCAR-3 > 100 µM | OVCAR-5 > 100 µM | PC-3 > 100 µM | RXF 393 > 100 µM | SK-MEL-2 > 100 µM | SK-MEL-5 > 100 µM | SK-OV-3 > 100 µM | T47D > 100 µM | UACC-257 > 100 µM | UO-31 > 100 µM

Cc1c(-c2ccccc2)n(C)c2cn[nH]c(=O)c12
inactive: 786-0 23.3 µM | A498 30.4 µM | A549 44.8 µM | ACHN 44.3 µM | BT-549 32.3 µM | CAKI-1 49.5 µM | CCRF-CEM 40.2 µM | COLO 205 17.1 µM | DU-145 67.8 µM | EKVX 18.1 µM | HCC 2998 27.8 µM | HCT-116 35.9 µM | HL-60 36.5 µM | HOP-62 30 µM | HOP-92 81.1 µM | HT-29 26.1 µM | Hs-578T 41.2 µM | IGROV-1 70 µM | K562 47.3 µM | KM12 37.5 µM | LOX IMVI 18.7 µM | M14 42.5 µM | MCF7 31.5 µM | MDA-MB-231 17.9 µM | MDA-MB-435 33.1 µM | MDA-N 33.5 µM | MOLT-4 32.7 µM | Malme-3M 42.6 µM | NCI-H23 38.4 µM | NCI-H460 63.8 µM | NCI-H522 > 100 µM | NCI/ADR-RES 26.7 µM | OVCAR-3 19.7 µM | OVCAR-5 52.2 µM | OVCAR-8 39.2 µM | PC-3 19.7 µM | RPMI-8226 38.1 µM | SF-268 37.5 µM | SF-295 25.2 µM | SF-539 45 µM | SK-MEL-28 47.3 µM | SK-MEL-2 22.7 µM | SK-MEL-5 17.3 µM | SK-OV-3 27.1 µM | SNB-19 > 100 µM | SR 27 µM | SW-620 47.1 µM | TK-10 41.4 µM | U-251 32.3 µM | UACC-257 45.5 µM | UACC-62 34.9 µM | UO-31 44.1 µM
36.6 µM: HCT-15

CSC1NC(c2ccccc2)=C(C#N)C(=O)N1C1OCC(OC(C)=O)C(OC(C)=O)C1OC(C)=O (stereo not drawn)
> 100 µM: HCT-15
inactive: 786-0 > 100 µM | A498 > 100 µM | A549 > 100 µM | ACHN > 100 µM | BT-549 > 100 µM | CAKI-1 > 100 µM | COLO 205 > 100 µM | DU-145 > 100 µM | EKVX > 100 µM | HCC 2998 > 100 µM | HCT-116 47.9 µM | HOP-62 > 100 µM | HOP-92 86.3 µM | HT-29 > 100 µM | Hs-578T > 100 µM | IGROV-1 > 100 µM | K562 > 100 µM | KM12 > 100 µM | LOX IMVI > 100 µM | M14 > 100 µM | MCF7 > 100 µM | MDA-MB-231 > 100 µM | MDA-MB-435 > 100 µM | MDA-N > 100 µM | MOLT-4 > 100 µM | Malme-3M > 100 µM | NCI-H226 > 100 µM | NCI-H23 > 100 µM | NCI-H460 > 100 µM | NCI-H522 > 100 µM | NCI/ADR-RES > 100 µM | OVCAR-3 > 100 µM | OVCAR-4 > 100 µM | OVCAR-5 > 100 µM | OVCAR-8 > 100 µM | PC-3 > 100 µM | RPMI-8226 > 100 µM | RXF 393 > 100 µM | SF-268 > 100 µM | SF-295 > 100 µM | SF-539 > 100 µM | SK-MEL-28 > 100 µM | SK-MEL-5 > 100 µM | SK-OV-3 > 100 µM | SN12C > 100 µM | SNB-19 > 100 µM | SNB-75 > 100 µM | SR > 100 µM | SW-620 > 100 µM | TK-10 > 100 µM | U-251 > 100 µM | UACC-257 > 100 µM | UACC-62 > 100 µM | UO-31 > 100 µM

COc1ccc(C2=Nc3c(nc(OC)[nH]c3=O)NC(c3ccccc3)C2)cc1 (stereo not drawn)
inactive: 786-0 27.6 µM | A498 32.6 µM | A549 34.4 µM | ACHN 27.5 µM | BT-549 31 µM | CAKI-1 52 µM | CCRF-CEM 30.8 µM | COLO 205 24.6 µM | DU-145 42.3 µM | EKVX 33.9 µM | HCT-116 28.4 µM | HL-60 19.3 µM | HOP-62 41.5 µM | HOP-92 32.3 µM | HT-29 28.4 µM | IGROV-1 30.1 µM | K562 25.2 µM | KM12 18.2 µM | LOX IMVI 26.6 µM | M14 27.3 µM | MCF7 21.9 µM | MDA-MB-231 20.7 µM | MDA-MB-435 33.3 µM | MDA-N 27 µM | MOLT-4 38.6 µM | Malme-3M > 100 µM | NCI-H226 36.6 µM | NCI-H23 29.6 µM | NCI-H522 28.7 µM | NCI/ADR-RES 24.8 µM | OVCAR-3 33.8 µM | OVCAR-5 46.6 µM | OVCAR-8 21.4 µM | PC-3 48 µM | RPMI-8226 32.7 µM | RXF 393 29.7 µM | SF-295 50 µM | SF-539 28.1 µM | SK-MEL-28 19.1 µM | SK-MEL-2 25.7 µM | SK-MEL-5 18.4 µM | SN12C 23.2 µM | SNB-19 30.5 µM | SNB-75 12.5 µM | SR 53.1 µM | SW-620 24.1 µM | U-251 24.8 µM | UACC-257 49.9 µM | UACC-62 42.8 µM | UO-31 46.2 µM
